Columns and labels:
Acetylcholinesterase [1] = biological target: T1, Acetylcholinesterase (Homo sapiens, UniProt P22303); experiment: Inhibition of human erythrocytes acetylcholinesterase after 15 mins at 250 uM relative to control
Acetylcholinesterase [2] = biological target: T1, Acetylcholinesterase; experiment: Inhibition of human erythrocytes acetylcholinesterase after 15 mins

T1 sequence (P22303 whole entry): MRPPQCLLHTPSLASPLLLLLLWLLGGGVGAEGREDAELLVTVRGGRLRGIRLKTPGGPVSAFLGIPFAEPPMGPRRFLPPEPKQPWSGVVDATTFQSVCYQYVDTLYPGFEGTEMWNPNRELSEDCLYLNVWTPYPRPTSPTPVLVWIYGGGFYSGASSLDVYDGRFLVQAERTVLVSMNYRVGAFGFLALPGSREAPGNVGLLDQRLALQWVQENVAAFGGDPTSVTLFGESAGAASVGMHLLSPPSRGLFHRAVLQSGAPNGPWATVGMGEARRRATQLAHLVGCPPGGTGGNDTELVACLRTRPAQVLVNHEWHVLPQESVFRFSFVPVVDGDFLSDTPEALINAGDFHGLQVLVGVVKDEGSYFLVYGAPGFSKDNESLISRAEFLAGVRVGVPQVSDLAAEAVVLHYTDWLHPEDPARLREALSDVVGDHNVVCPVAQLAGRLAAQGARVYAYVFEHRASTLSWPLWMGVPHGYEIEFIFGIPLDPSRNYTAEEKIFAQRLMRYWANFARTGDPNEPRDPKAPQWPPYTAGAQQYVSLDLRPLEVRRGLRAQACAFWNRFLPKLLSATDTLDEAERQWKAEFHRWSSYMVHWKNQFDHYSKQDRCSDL

| Structure (SMILES) | inhibition (Acetylcholinesterase [1]) [%] | IC50 (Acetylcholinesterase [2]) [µM] |
| --- | --- | --- |
| CC(C)(O)CC(=O)CC(C)(O)c1ccc(C(=O)O)cc1 (single isomer, unassigned; (+)) | 37.6 |  |
| Cc1coc(C[C@](C)(O)c2ccc(C(=O)O)cc2)c1 | 33.6 |  |
| CC(C)=CC(=O)C[C@](C)(O)c1ccc(C(=O)O)cc1 | 41.9 |  |
| CC(C)=CC(=O)C[C@H](C)c1ccc(C)cc1 |  | 191 |
| C/C(=C\C(=O)C[C@](C)(O)c1ccc(C(=O)O)cc1)CO | 34.3 |  |
| Cc1ccc([C@@H](C)CC(=O)CC(C)C)cc1 |  | 81.5 |
| C/C(=C\C(=O)C[C@H](C)c1ccc(C(=O)O)cc1)CO | 31 |  |

From ChEMBL document CHEMBL1667723, “Biotransformation of turmerones by Aspergillus niger” (J Nat Prod, 2011)
